Reference: a melting point compilation (Tetko et al.; mined from patent text by program, amines drawn as free bases though some values may be those of a salt)

Compound	melting point
Cc1cc2c(cc1O)C(C)(C)CC1(CC(C)(C)c3cc(OCCCn4cccn4)c(C)cc3O1)O2 (stereo not drawn)	239 to 241 °C
COC(=O)c1cccc(C=C(C)[N+](=O)[O-])c1O	119 to 121 °C
CN=Cc1cccc(C(=O)NC)c1	87 °C
CCCOc1ccccc1-c1nc2nnc(N)nc2c(=O)[nH]1	322 to 325 °C
CC(=O)c1c(F)cccc1N1CCN(C(=O)OC(C)(C)C)CC1	88 °C
O=C(NCC12CC3CC(CC(C3)C1)C2)c1cc(I)ccc1Cl	161 to 162 °C
COc1cccc2c1N(S(=O)(=O)c1ccc(-c3ccc(F)cc3F)cc1)C(C(=O)NCCOc1ccc(C(=O)O)cc1)C2 (stereo not drawn)	234 °C
CC1=CC(=O)N(c2cc(-n3c(=O)n(C)c(=O)n(CC(=O)OC(C)C)c3=O)c(Cl)cc2F)C1=O	110 to 120 °C
CCCc1nc(S(C)=O)c(C(=O)OCC)n1Cc1cc2c(cc1Cl)OCO2 (stereo not drawn)	187 °C
COC(=O)C(F)=CCS(=O)(=O)c1ccccc1	104 to 105 °C
COc1cccc(CNC(=O)c2nc3cccc(OCCc4ccc(C(=O)O)cc4)c3c(=O)[nH]2)c1	228 to 230 °C
Clc1c(Cl)c(Cl)c2c(nc(Cl)n2COCCOCc2ccccc2)c1Cl	95 °C
Cc1nc2ccccc2c(=O)n1-c1ccc(Cl)cc1	141 to 142 °C
Cc1ccc(S(=O)(=O)OCC2Cc3cc(C)c4c(c3O2)CCC4)cc1 (stereo not drawn)	61 to 64 °C
Cc1ccc2cccc(OCc3c(Cl)ccc(S(=O)(=O)N(CCCCN(C(=O)OC(C)(C)C)C(=O)OC(C)(C)C)C(C)(C)C)c3Cl)c2n1	172 to 175 °C
NC(=O)c1cnc2ccc(Cl)cc2c1Cl	209 °C
CCCC(=O)c1ccc2c(c1)C(C)C(=S)N2 (stereo not drawn)	133 to 136 °C
CC(=O)N1CCN=C1Nc1ccnn1-c1ccc(F)cc1	162 to 164 °C
COC(=O)c1ccc2sc(Cl)nc2c1C	112 °C
CCOC(=O)c1csc(C#Cc2ccc(OC)c(C34CC5CC(CC(C5)C3)C4)c2)c1	88 to 90 °C
NC(=O)c1ccc(OC2CCN(c3ccncc3)C2)cc1 (stereo not drawn)	298 to 300 °C
COc1ccc2c(c1)CN(S(=O)(=O)NC(Cc1cc3c(N)nccc3s1)C(=O)N1CCC(C)CC1)CC2 (stereo not drawn)	175 to 176 °C
CCc1ccc(CSc2nc(C)cc(=O)[nH]2)nc1	127 to 128 °C
CCOc1nn(-c2ccc(C(F)(F)F)cn2)cc1CCCCOc1ccccc1CC(=O)O	109 to 110 °C
CC(C)(C)C(=O)COc1nn(CC=C(Cl)Cl)c(-c2ccc(S(C)(=O)=O)cc2)c1-c1ccc(F)cc1	156 to 158 °C

More lines, now with the values ahead:

melting point	Compound
199 to 200 °C	Cc1nn(-c2ccccn2)c2[nH]c3ccccc3c(=O)c12
133 to 135 °C	O=C(Nc1nnc(COc2ccccc2Cl)s1)c1ccc2c(c1)CCN(C(=O)CO)C2
180 to 182 °C	Oc1cc2onc(-c3ccccc3F)c2cc1Cl
157 to 158 °C	COc1c(OC)c(OC)c2c(=O)cc(-c3ccc(OCc4ccccc4)c(OCc4ccccc4)c3)oc2c1OC
165 to 167 °C	CN(C)c1ccc2c(c1)c(=O)[nH]c(=O)n2CCCCN1CCC(OC(c2ccccc2)c2ccccc2)CC1
123 to 126 °C	O=CNC1CCc2c([nH]c3ccccc23)C1 (stereo not drawn)
118 to 119 °C	Clc1ccc(-c2ccccc2OCC2CO2)nn1 (stereo not drawn)
276 to 278 °C	C1=CCc2c3c(c4ccccc4c2=C1)=c1c(c2ccccc2c2ccccc12)=C3
208 to 210 °C	c1ccc2c(c1)-c1ccccc1C21c2cccnc2-c2ncccc21
127 to 129 °C	CCCCC1c2ccccc2-c2ccccc2N1S(=O)(=O)c1ccc(OC)cc1 (stereo not drawn)
195 to 197 °C	O=c1c2c(c3ccccc3n1-c1ccccc1)OCC2
282 to 284 °C	N#Cc1cccc(C(=O)NCc2cccc3c2CN(C2CCC(=O)NC2=O)C3=O)c1 (stereo not drawn)
173 to 175 °C	CC(C)n1nc(-c2c(-c3ccccc3)oc(=O)n2C(C)C(=O)O)ccc1=O (stereo not drawn)
